Data from ChEMBL document CHEMBL3046356, “Synthesis and anticholinesterase activity of fumaramide derivatives” (Med Chem Res, 2013).
Active and inactive are the calls of the source. The rule behind the calls is not given here.

Tests used:
[1] = biological target: Acetylcholinesterase (Electrophorus electricus) (UniProt O42275); test: Inhibition of Electrophorus electricus (electric eel) AChE using acetylthiocholine iodide as substrate at 10 mg/ml by TLC-B assay
[2] = biological target: Cholinesterase (Equus caballus, UniProt P81908); test: Inhibition of BCHE in Equus caballus (horse) serum using butyrylthiocholine iodide as substrate preincubated with enzyme for 15 min prior to substrate addition measured every 45 s by colorimetric Ellman's method
[3] = biological target: Acetylcholinesterase (Electrophorus electricus, UniProt O42275); test: Inhibition of Electrophorus electricus (electric eel) AChE using acetylthiocholine iodide as substrate preincubated with enzyme for 15 min prior to substrate addition measured every 45 s by colorimetric Ellman's method
[4] = biological target: Cholinesterase (Equus caballus) (UniProt P81908); test: Non-competitive inhibition of BCHE in Equus caballus (horse) serum assessed as decrease in Vmax with unchanged Km using butyrylthiocholine iodide as substrate by Lineweaver-burk plot analysis
[5] = biological target: Acetylcholinesterase (Electrophorus electricus) (UniProt O42275); test: Non-competitive inhibition of Electrophorus electricus (electric eel) AChE assessed as decrease in Vmax with unchanged Km using acetylthiocholine iodide as substrate by Lineweaver-burk plot analysis

Acetylcholinesterase, sequence (O42275 whole entry): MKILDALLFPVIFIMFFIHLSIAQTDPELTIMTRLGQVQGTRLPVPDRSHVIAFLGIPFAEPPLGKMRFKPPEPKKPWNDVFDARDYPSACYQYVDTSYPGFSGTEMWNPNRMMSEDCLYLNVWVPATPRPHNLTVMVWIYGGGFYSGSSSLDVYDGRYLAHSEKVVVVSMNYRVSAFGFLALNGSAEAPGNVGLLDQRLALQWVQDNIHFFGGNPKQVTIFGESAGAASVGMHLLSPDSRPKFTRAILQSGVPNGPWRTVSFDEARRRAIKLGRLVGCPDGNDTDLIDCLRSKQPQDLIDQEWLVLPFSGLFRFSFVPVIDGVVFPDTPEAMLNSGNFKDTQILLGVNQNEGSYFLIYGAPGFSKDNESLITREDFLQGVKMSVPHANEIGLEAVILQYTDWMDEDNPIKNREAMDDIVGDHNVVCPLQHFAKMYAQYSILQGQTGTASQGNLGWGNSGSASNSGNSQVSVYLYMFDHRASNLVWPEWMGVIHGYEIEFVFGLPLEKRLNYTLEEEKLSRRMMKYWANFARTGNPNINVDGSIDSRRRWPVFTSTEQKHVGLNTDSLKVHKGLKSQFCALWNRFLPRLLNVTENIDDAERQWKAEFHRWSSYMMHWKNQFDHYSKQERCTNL
Acetylcholinesterase (Electrophorus electricus), sequence (O42275 24-633 limits assumed): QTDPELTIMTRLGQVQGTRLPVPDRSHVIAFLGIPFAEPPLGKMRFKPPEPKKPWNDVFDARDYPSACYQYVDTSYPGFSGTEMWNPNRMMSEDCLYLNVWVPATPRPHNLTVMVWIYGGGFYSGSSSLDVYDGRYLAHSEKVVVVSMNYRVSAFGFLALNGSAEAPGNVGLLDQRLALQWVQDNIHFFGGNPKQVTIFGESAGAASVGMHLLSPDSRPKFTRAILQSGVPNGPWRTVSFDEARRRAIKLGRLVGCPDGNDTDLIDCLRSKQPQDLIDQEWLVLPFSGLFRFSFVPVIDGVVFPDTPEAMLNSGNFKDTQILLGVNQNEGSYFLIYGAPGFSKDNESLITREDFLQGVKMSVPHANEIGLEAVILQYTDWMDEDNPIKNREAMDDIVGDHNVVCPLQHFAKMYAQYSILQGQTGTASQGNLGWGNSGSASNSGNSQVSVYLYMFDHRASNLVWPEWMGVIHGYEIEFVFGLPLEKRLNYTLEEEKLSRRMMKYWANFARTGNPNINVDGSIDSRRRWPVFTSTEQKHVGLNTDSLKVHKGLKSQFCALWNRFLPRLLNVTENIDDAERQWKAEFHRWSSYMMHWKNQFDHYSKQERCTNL
Cholinesterase, sequence (P81908 whole entry): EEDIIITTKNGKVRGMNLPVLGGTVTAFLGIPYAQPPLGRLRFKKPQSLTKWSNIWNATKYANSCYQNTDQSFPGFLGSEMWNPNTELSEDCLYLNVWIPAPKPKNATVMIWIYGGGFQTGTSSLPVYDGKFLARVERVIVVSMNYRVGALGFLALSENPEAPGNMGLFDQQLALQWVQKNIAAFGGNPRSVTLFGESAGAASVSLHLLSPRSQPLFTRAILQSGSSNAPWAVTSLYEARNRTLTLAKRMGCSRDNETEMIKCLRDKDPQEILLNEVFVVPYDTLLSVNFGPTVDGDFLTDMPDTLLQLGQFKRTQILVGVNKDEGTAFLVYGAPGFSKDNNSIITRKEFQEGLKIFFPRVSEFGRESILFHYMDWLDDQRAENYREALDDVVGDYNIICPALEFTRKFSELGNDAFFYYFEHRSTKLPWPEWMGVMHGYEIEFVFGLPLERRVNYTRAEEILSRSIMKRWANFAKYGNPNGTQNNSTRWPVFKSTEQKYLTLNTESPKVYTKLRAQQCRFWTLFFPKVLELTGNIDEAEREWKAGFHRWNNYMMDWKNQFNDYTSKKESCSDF
Cholinesterase (Equus caballus), sequence (P81908 whole entry): as above

SMILES | inhibition [1] | IC50 [2] [µM] | IC50 [3] [µM] | inhibition [4] | inhibition [5]
Cc1ccc(CN(C(=O)/C=C/C(=O)N(Cc2ccc(C)cc2)c2ccc(F)cc2)c2ccc(F)cc2)cc1 | Active | 56.6 | 23.9 | – | –
O=C(/C=C/C(=O)N(Cc1ccccc1)c1ccc(Cl)cc1)N(Cc1ccccc1)c1ccc(Cl)cc1 | Active | 57.7 | 2.53 | – | –
CCc1ccc(N(Cc2ccc(C)cc2)C(=O)/C=C/C(=O)N(Cc2ccc(C)cc2)c2ccc(CC)cc2)cc1 | Active | 44.7 | 29.4 | – | –
Fc1ccc(NCc2ccccc2)cc1 | Active | > 100 | > 100 | – | –
CCOc1ccc(NCc2ccc(C)cc2)cc1 | Active | 4.07 | > 100 | – | –
COc1ccc(N(Cc2ccc(C)cc2)C(=O)/C=C/C(=O)N(Cc2ccc(C)cc2)c2ccc(OC)cc2)cc1 | Active | 41 | 11.2 | – | –
O=C(/C=C/C(=O)N(Cc1ccccc1)c1ccc(I)cc1)N(Cc1ccccc1)c1ccc(I)cc1 | Active | 23.3 | 0.97 | – | –
Cc1ccc(CNc2ccc(Cl)cc2)cc1 | Active | > 100 | > 100 | – | –
Cc1ccc(CN(C(=O)/C=C/C(=O)N(Cc2ccc(C)cc2)c2ccc(Cl)cc2)c2ccc(Cl)cc2)cc1 | Active | 45.6 | 2.42 | – | –
COc1ccc(N(Cc2ccccc2)C(=O)/C=C/C(=O)N(Cc2ccccc2)c2ccc(OC)cc2)cc1 | Active | 43.6 | 13.9 | – | –
Cc1ccc(CN(C(=O)/C=C/C(=O)N(Cc2ccc(C)cc2)c2ccc(I)cc2)c2ccc(I)cc2)cc1 | Active | 24.6 | 17.7 | – | –
Cc1ccc(CNc2ccc(I)cc2)cc1 | Active | > 100 | > 100 | – | –
CCc1ccc(NCc2ccc(C)cc2)cc1 | Active | > 100 | > 100 | – | –
O=C(/C=C/C(=O)N(Cc1ccccc1)c1ccccc1)N(Cc1ccccc1)c1ccccc1 | Active | 52.4 | 11.8 | – | –
Ic1ccc(NCc2ccccc2)cc1 | Active | > 100 | > 100 | – | –
Clc1ccc(NCc2ccccc2)cc1 | Active | > 100 | > 100 | – | –
Cc1ccc(CN(C(=O)/C=C/C(=O)N(Cc2ccc(C)cc2)c2ccc(C)cc2)c2ccc(C)cc2)cc1 | Active | 54.8 | 43.1 | – | –

SMILES | inhibition [1] | IC50 [2] [µM] | IC50 [3] [µM] | inhibition [4] | inhibition [5]
CCc1ccc(N(Cc2ccccc2)C(=O)/C=C/C(=O)N(Cc2ccccc2)c2ccc(CC)cc2)cc1 | Active | 49.3 | 32.2 | – | –
Cc1ccc(CNc2ccc(Br)cc2)cc1 | Active | > 100 | > 100 | – | –
Cc1ccc(NCc2ccccc2)cc1 [N-BENZYL-4-METHYLANILINE] | Active | > 100 | > 100 | – | –
Brc1ccc(NCc2ccccc2)cc1 | Active | > 100 | > 100 | – | –
c1ccc(CNc2ccccc2)cc1 [N-BENZYLANILINE] | Active | > 100 | 13 | – | –
O=C(/C=C/C(=O)N(Cc1ccccc1)c1ccc(F)cc1)N(Cc1ccccc1)c1ccc(F)cc1 | Active | 89.5 | 4.5 | – | –
CCOc1ccc(N(Cc2ccccc2)C(=O)/C=C/C(=O)N(Cc2ccccc2)c2ccc(OCC)cc2)cc1 | Active | 44 | 35.9 | – | –
Cc1ccc(CN(C(=O)/C=C/C(=O)N(Cc2ccc(C)cc2)c2ccc(Br)cc2)c2ccc(Br)cc2)cc1 | Active | 23.1 | 0.14 | Active | Active
CCOc1ccc(NCc2ccccc2)cc1 | Active | > 100 | > 100 | – | –
Cc1ccc(CNc2ccc(F)cc2)cc1 | Active | > 100 | > 100 | – | –
O=C(/C=C/C(=O)N(Cc1ccccc1)c1ccc(Br)cc1)N(Cc1ccccc1)c1ccc(Br)cc1 | Active | 16.5 | 8.06 | Active | Active
Cc1ccc(N(Cc2ccccc2)C(=O)/C=C/C(=O)N(Cc2ccccc2)c2ccc(C)cc2)cc1 | Active | 26.3 | 12.5 | – | –
CCc1ccc(NCc2ccccc2)cc1 | Active | > 100 | > 100 | – | –
COc1ccc(NCc2ccc(C)cc2)cc1 | Active | > 100 | 1.33 | – | –
Cc1ccc(CNc2ccc(C)cc2)cc1 | Active | > 100 | > 100 | – | –
CCOc1ccc(N(Cc2ccc(C)cc2)C(=O)/C=C/C(=O)N(Cc2ccc(C)cc2)c2ccc(OCC)cc2)cc1 | Active | > 100 | 2.23 | – | –
